Entries after “also recorded” stand apart in the source; their conditions may differ.
Columns and labels:
Assay in all cases: Growth inhibition by 2-phenylethanol in aerobic culture (OD610)
Format in all cases: cell-based
[1] = system: Corynebacterium glutamicum R; details: aerobic shaking culture 33° C., A-liquid medium
Procedure: Tests regarding growth inhibition by 2-phenylethanol in aerobic culture were carried out on Corynebacterium glutamicum, Escherichia coli, Pseudomonas putida, and Kluyveromyces marxianus. Corynebacterium glutamicum R was applied to an A-agar plate (the same as that described above), and was left to stand in a dark place at 33° C. for 15 hours. One platinum loop of Corynebacterium glutamicum R grown on the plate described above was inoculated in a test tube having therein 10 ml of the A-liquid medium, and aerobic shaking culture was carried out at 33° C. for 13 hours. Corynebacterium glutamicum R grown under the above-described conditions was inoculated in 100 ml of the A-liquid medium (the same as that described above) so that the initial bacterial cell concentration OD610=0.05 was achieved. Simultaneously, 2-phenylethanol was added so that the final concentrations thereof became 0, 10, 20, 30, 40, and 50 mM, and aerobic shaking culture was carried out at 33° C. The growth of bacterial cells was determined by measuring the absorbance of OD610.

Escherichia coli MG1655 = details: aerobic shaking culture, LB-liquid medium
Procedure: Tests regarding growth inhibition by 2-phenylethanol in aerobic culture were carried out on Corynebacterium glutamicum, Escherichia coli, Pseudomonas putida, and Kluyveromyces marxianus. Escherichia coli MG1655 was applied to an LB-agar plate [containing 1% polypeptone, 0.5% yeast extract, 0.5% sodium chloride, and 1.5% agar], and was left to stand at 37° C. for 15 hours in a dark place. One platinum loop of Escherichia coli MG1655 grown on the plate described above was inoculated in a test tube having therein 10 ml of an LB-liquid medium [containing 1% polypeptone, 0.5% yeast extract, and 0.5% sodium chloride], and was subjected to aerobic shaking culture at 37° C. for 13 hours. Escherichia coli MG1655 grown under the above-described conditions was inoculated in 100 ml of the LB-liquid medium so that the initial bacterial cell concentration OD610=0.05 was achieved. Simultaneously, 2-phenylethanol was added so that the final concentrations thereof became 0, 10, 20, 30, 40, and 50 mM, and aerobic shaking culture was carried out at 33° C. The growth of bacterial cells was determined by measuring the absorbance of OD610.

Pseudomonas putida S12 = details: aerobic shaking culture 30° C., LB(+glucose)-liquid medium
Procedure: Tests regarding growth inhibition by 2-phenylethanol in aerobic culture were carried out on Corynebacterium glutamicum, Escherichia coli, Pseudomonas putida, and Kluyveromyces marxianus. Pseudomonas putida S12 was applied to an LB-agar plate [containing 1% polypeptone, 0.5% yeast extract, 0.5% sodium chloride, and 1.5% agar], and was left to stand at 30° C. for 15 hours in a dark place. One platinum loop of Pseudomonas putida S12 grown on the plate described above was inoculated in a test tube having therein 10 ml of an LB(+glucose)-liquid medium [containing 1% polypeptone, 0.5% yeast extract, 0.5% sodium chloride, and 0.4% glucose], and was subjected to aerobic shaking culture at 33° C. for 13 hours. The Pseudomonas putida S12 strain grown under the above-described conditions was inoculated in 100 ml of the LB(+glucose)-liquid medium so that the initial bacterial cell concentration OD610=0.05 was achieved. Simultaneously, 2-phenylethanol was added so that the final concentrations thereof became 0, 10, 20, 30, 40, and 50 mM, and aerobic shaking culture was carried out at 30° C. The growth of bacterial cells was determined by measuring the absorbance of OD610.

Kluyveromyces marxianus = details: aerobic shaking culture 40° C., YPD-liquid medium
Procedure: Tests regarding growth inhibition by 2-phenylethanol in aerobic culture were carried out on Corynebacterium glutamicum, Escherichia coli, Pseudomonas putida, and Kluyveromyces marxianus. Further, Kluyveromyces marxianus was applied to a YPD-agar plate [containing 2% polypeptone, 1% yeast extract, 2% glucose, and 1.5% agar], and was left to stand at 30° C. for 15 hours in a dark place. One platinum loop of Kluyveromyces marxianus grown on the plate described above was inoculated in a test tube having therein 10 ml of a YPD-liquid medium [containing 2% polypeptone, 1% yeast extract, and 2% glucose], and was subjected to aerobic shaking culture at 40° C. for 13 hours. Kluyveromyces marxianus grown under the above-described conditions was inoculated in 100 ml of the YPD-liquid medium so that the initial bacterial cell concentration OD610=0.05 was achieved. Simultaneously, 2-phenylethanol was added so that the final concentrations thereof became 0, 10, 20, 30, 40, and 50 mM, and aerobic shaking culture was carried out at 40° C. The growth of bacterial cells was determined by measuring the absorbance of OD610.

Structure (SMILES): OCCc1ccccc1 [2-phenylethanol]
- growth of Corynebacterium glutamicum ([1]; 20 mM 2-phenylethanol): not influenced at all
- growth of Corynebacterium glutamicum ([1]; 30 mM 2-phenylethanol): delayed, but was improved 24 hours after
- growth of Escherichia coli (Escherichia coli MG1655; 20 mM 2-phenylethanol): significantly inhibited; also recorded: strongly inhibited
- growth of Escherichia coli (Escherichia coli MG1655; 30 mM 2-phenylethanol): substantially completely inhibited
- growth of Pseudomonas putida (Pseudomonas putida S12; 20 mM 2-phenylethanol): strongly inhibited
- growth of Pseudomonas putida (Pseudomonas putida S12; 30 mM 2-phenylethanol): substantially completely inhibited
- growth of Kluyveromyces marxianus (Kluyveromyces marxianus; 20 mM 2-phenylethanol): strongly inhibited
- growth of Kluyveromyces marxianus (Kluyveromyces marxianus; 30 mM 2-phenylethanol): substantially completely inhibited
